# Measured values reported in patent US20240374735A1, “AROMATIC BORON-CONTAINING COMPOUNDS AND INSULIN ANALOGS” (PROTOMER TECHNOLOGIES INC., priority 2020, published 2024).
# Test system: diabetic B6 mice (streptozocin)
# Assay: Glucose challenge in STZ diabetic mice
# Type: in vivo
# Conditions: injected subcutaneously or intraperitoneally, glucose challenge one hour post-injection
# Experimental: Diabetes was induced in 12-week-old B6 mice using streptozocin (STZ) treatment. Three weeks after the final STZ treatment, blood glucose of the mice was sampled from lateral tail vein to confirm diabetes. Mice with blood glucose of >200 mg/dl were deemed to be diabetic and fasted for 1-6 hours prior to injection. Human insulin and a compound of Formula I in sterile phosphate buffered saline, pH 7.4 were injected either subcutaneously via neck scruff or intraperitoneally, depending on the experiment. Blood glucose was sampled with a glucometer via lateral tail vein at 15-minute intervals. After one hour of initial stabilization of blood glucose levels post-insulin injection, mice were challenged with an intraperitoneal injection of glucose (e.g., 2 g/kg, 4 g/kg, or 6 g/kg; the actual dose depends on the example and experiment) in sterile phosphate buffered saline.
substance,measurement,value
"human insulin: Human insulin, comparator in the mouse experiments; biosynthetic human insulin (BHI) in the clamp",Blood glucose response after intraperitoneal glucose bolus,did not activate in a glucose-dependent manner
